# Patent US8158575B2, “Agent for the prevention and treatment of sexually transmitted diseases-I” (priority 2001, dated 2012)
# Key:
# HIV-1 (IIIB) = assay type: cell-based; conditions: strain IIIB (HIV-1), MT-4 cells
# Procedure: The human immunodeficiency virus strains used were HIV-1 (IIIB)^1 and HIV-2 (ROD)^2. Anti-retroviral activity and cytotoxicity measurements were carried out in parallel. […] After the MT-4 cells were allowed to proliferate for 5 days, the number of viable cells was quantified by a tetrazolium-based calorimetric 3-(4,5-dimethylthiazol-2-yl)-2,5-diphenyltetrazolium bromide (MTT) procedure in 96-well microtrays.^3
# In all of these assays, viral input (viral multiplicity of infection, MOI) was 0.01, or 100 times the 50% cell culture infective dose (CCID50). […] Average EC50 and CC50 values for several separate experiments are presented as defined above. […] SI is the antiviral selectivity index CC50/EC50.
# GHOST(3) X4/R5 cell line = experiment: XTT cell viability in the CD4-dependent transmission assay; assay type: cell-based, human
# Procedure: The […] is carried out essentially as described for the CD4-independent transmission assay except for the use of the CD4 positive GHOST(3) X4/R5 cell line. This cell line is derived from the HOS (human osteosarcoma) cell line that is negative for HIV coreceptor and CD4 expression. The cell line is engineered to express T4 (CD4), R5 and X4 via non-selectable retroviral vectors and an HIV-2 LTR hGFP construct with a hygromycin selectable marker. The cell lines are handled and cultured as described above for the CD4-independent HIV inhibition assay, with the exception that 2.5×10^4 GHOST(3) X4/R5 and 5×10^2 mitomycin C treated H9/SK-1 cells are used in the assay. Addition of compounds, mitomycin C treatment and post-transmission washing to remove the H9/SK-1 cells are performed as described above to allow comparability of the two antiviral assays. Virus replication is assessed at 24 h post infection, following 3 washes, by measurement of cell-associated p24 by ELISA to ensure a single round of infection in the presence of CD4. Compound toxicity and cell viability are assessed by XTT dye reduction.
# Lactobacillus crispatus = experiment: Lactobacillus growth sensitivity assay; assay type: cell-based; conditions: 24 h growth, OD 490 nm
# Procedure: (§1) Lactobacillus crispatus and Lactobacillus jensenii were obtained from the American Type Tissue Culture Collection and grown in Lactobacilli MRS broth (Difco, Fisher Scientific, Pittsburgh, Pa.). This medium allows efficient growth of the Lactobacilli under anaerobic conditions. Bacillus stocks are produced and frozen in 15% glycerol at −80° C. for use in the sensitivity assay. To assess the effect of compounds on L. crispatus and L. jensenii growth, 10 ml of MRS media is inoculated with a stab from the glycerol bacterial stock. The culture is placed in a Gas Pak CO2 bag and incubated for 24 h at 37° C. The next day the lactobacillus cultures are diluted to an OD of 0.06 at a wavelength of 670 nm. Compounds are diluted and placed into a 96 well flat bottomed plate and the Lactobacillus sp. added. Commercially available Penicillin/Streptomycin solution at a high test concentration of 1.25 U/ml and 1.25 µg/ml, respectively, are used as the positive control. The plates are again incubated for 24 h at 37° C. in a Gas Pak CO2 bag and bacterial growth determined by measurement of optical density at 490 nm in a molecular devices plate reader. All determinations are performed with 6½ log dilutions from a high test concentration in triplicate.
# Lactobacillus jensenii = experiment: Lactobacillus growth sensitivity assay; assay type: cell-based; conditions: 24 h growth, OD 490 nm
# Procedure: as §1
# IIIB strain of HIV = assay type: cell-based, HIV-1; conditions: HeLa CD4 LTR […]-gal cells
# Procedure: At 24 h media is removed and compound in media placed on the cells and incubated for 15 min at 37° C.
# HeLa CD4 LTR […]-gal cells [1] = experiment: XTT toxicity on sister plate of the attachment assay; assay type: cell-based
# Procedure: This assay is designed to detect compounds that interact with the cell and block virus attachment, and/or compounds which interact with the forming attachment/fusion complex. The attachment assay is performed with HeLa CD4 LTR […]-gal cells. HeLa CD4 LTR […]-gal cells are routinely cultured with the required selection antibiotics. Twenty-four h prior to initiation of the assay the cells are trypsinized, counted and 1×10^4 cells placed in a 0.2 cm well in media without selection antibiotics. At 24 h media is removed and compound in media placed on the cells and incubated for 15 min at 37° C. A known titer of the IIIB strain of HIV is then added to the wells and the incubation continued for 1 h. At the end of the incubation the wells are washed 3 times with media and the culture continued for 40 to 48 h. At termination of the assay, media is removed and […]-galactosidase enzyme expression determined by chemiluminescence per manufacturers instructions (Tropix Gal-screen™, Bedford Mass.) by a single step chemiluminescent method using a single solution to lyse the cells and detect […]-galactosidase enzyme activity. Compound toxicity is monitored on a sister plate by XTT dye reduction. […] The virus adsorption interval of 1 h is sufficiently short that AZT, which requires phosphorylation to its active tri-phosphate form (AZT-TTP), is not active in this assay.
# HeLa CD4 LTR […]-gal cells [2] = experiment: XTT toxicity on sister plate of the fusion assay; assay type: cell-based
# Procedure: The fusion assay assesses the ability of compounds to block cell-to-cell fusion mediated by HIV-1 Env and CD4 expressed on separate cells. This assay is sensitive to inhibitors of both the gp120/CD4 interaction and inhibitors of the X4 coreceptor. First, 5×10^3 HeLa CD4 LTR […]-gal cells are placed in microtiter wells and incubated overnight. The following day the media is removed and the HeLa CD4 LTR […]-gal cells are incubated for 1 h at 37° C. in fresh media with test compound. Following the incubation 5×10^3 HL2/3 cells are added and the incubation continued for 40 to 48 h. At 40 to 48 h […]-galactosidase enzyme expression is detected by chemiluminescence (Tropix Gal-screen™, Tropix, Bedford, Mass.). Compound toxicity is monitored on a sister plate using XTT dye reduction.
substance,measurement,setting,value
"BHAlyslys2lys4lys8lys16[NH—CO—CH2)O-3,6-Naphthyl-(SO3Na)2]32 [SPL-7013]",EC90,HIV-1 (IIIB),0.954 µg/mL
same,EC50,HIV-1 (IIIB); 5 days,0.45 µg/mL
same,CD4-Dependent Transmission Assay TC50,GHOST(3) X4/R5 cell line,>100 µg/mL
same,L. crispatus (ID50),Lactobacillus crispatus,>100 µg/mL
same,L jensenii (ID50),Lactobacillus jensenii,>100 µg/mL
same,Attachment Assay IC50,IIIB strain of HIV,0.57 µg/ml
same,Attachment Assay TC50,HeLa CD4 LTR […]-gal cells [1],>100 µg/mL
same,Fusion Assay TC50,HeLa CD4 LTR […]-gal cells [2],>100 µg/mL
